Measured values from US7498336B2, “Deazaflavin compounds and methods of use thereof” (The United States of America as represented by the …, priority 2003, dated 2009).

What was measured:
[1] = molecular target: T1, Nedd4 (Homo sapiens, UniProt P46934); test: In vitro ubiquitination assay (E1+E2+E3) with unrelated E3 ligase; format: biochemical; conditions: gel assay, FIG. 2B, 2C
T1 construct: made in house
T1 sequence (P46934 1-1319): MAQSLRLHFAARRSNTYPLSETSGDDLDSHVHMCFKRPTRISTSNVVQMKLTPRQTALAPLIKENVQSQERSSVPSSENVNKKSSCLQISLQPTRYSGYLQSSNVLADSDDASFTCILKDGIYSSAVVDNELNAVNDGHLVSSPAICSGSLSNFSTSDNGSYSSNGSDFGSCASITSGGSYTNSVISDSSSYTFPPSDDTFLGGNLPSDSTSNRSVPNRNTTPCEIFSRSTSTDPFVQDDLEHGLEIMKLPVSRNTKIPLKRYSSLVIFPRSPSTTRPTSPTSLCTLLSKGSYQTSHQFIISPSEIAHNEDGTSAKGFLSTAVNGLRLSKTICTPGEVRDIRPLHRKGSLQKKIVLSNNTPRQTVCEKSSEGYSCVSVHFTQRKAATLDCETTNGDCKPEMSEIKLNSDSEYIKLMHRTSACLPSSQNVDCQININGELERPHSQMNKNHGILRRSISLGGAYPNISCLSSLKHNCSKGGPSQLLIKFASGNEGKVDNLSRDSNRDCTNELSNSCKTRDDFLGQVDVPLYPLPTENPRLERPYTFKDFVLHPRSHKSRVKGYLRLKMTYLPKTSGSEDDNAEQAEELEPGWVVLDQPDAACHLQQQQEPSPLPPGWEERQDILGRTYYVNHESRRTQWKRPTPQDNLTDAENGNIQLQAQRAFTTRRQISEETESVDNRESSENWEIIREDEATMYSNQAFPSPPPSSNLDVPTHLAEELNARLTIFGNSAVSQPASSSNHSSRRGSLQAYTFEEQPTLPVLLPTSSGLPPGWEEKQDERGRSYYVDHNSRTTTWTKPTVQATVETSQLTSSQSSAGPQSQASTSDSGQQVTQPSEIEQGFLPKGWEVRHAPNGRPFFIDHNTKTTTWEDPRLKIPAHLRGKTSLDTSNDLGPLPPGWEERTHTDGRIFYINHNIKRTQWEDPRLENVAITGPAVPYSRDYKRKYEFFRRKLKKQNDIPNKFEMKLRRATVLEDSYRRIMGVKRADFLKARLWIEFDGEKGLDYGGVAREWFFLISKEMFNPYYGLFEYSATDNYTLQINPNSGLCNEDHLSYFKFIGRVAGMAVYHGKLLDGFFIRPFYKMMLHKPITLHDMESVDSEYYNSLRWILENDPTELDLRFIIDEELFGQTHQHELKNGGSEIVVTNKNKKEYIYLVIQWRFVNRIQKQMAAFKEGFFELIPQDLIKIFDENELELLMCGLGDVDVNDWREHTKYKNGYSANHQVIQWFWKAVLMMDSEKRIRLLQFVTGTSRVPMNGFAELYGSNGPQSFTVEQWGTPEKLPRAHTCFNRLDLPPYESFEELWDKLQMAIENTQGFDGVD
Description: (§1) 1 pmole per experimental point of bacterially expressed GST-MDM2 (or GST-Nedd) was coupled to glutathione Sepharose (GS) for 30 minutes at room temperature with tumbling, followed by 3× wash with 50 mM Tris pH 7.5. Following this, 20 μl of 1× buffer was added (40 μl 10× reaction buffer*, 40 μl 10× PCK**, 320 μl dH2O). The test compound in DMSO is then added to the desired concentration with an equal volume of DMSO used as a control. Samples are incubated with shaking for 1 hr at 23° C. To carry out the reaction, a pre-made cocktail of Rabbit E1 (Calbiochem #6620700)/UbcH5B/^32P Ub cocktail (1 μl/0.5 μl/1 μl) is added followed by 15 minutes shaking at 30° C. The reaction is terminated by addition of 8 μl 4× reducing SDS-PAGE loading buffer. After dissociating proteins from the beads at 100° C. for 2 minutes, samples are resolved on 6% PAGE followed by exposure of the dried gel to phosphor screen. Note: ^32P Ub is derived from GST-Ub that has been engineered to include a PKA phosphorylation site. This fusion protein is purified on glutathione Sepharose, phosphorylated, following this, the ^32P Ub ubiquitin is cleaved and purified away from the thrombin.

[2] = molecular target: T2, rabbit E1 (Oryctolagus cuniculus, UniProt Q29504); test: E1 only assay (thiol-ester linkage of ubiquitin with E1); format: biochemical; conditions: FIG. 2D
T2 construct: purchased Calbiochem 6620700
T2 sequence (Q29504 1-1058): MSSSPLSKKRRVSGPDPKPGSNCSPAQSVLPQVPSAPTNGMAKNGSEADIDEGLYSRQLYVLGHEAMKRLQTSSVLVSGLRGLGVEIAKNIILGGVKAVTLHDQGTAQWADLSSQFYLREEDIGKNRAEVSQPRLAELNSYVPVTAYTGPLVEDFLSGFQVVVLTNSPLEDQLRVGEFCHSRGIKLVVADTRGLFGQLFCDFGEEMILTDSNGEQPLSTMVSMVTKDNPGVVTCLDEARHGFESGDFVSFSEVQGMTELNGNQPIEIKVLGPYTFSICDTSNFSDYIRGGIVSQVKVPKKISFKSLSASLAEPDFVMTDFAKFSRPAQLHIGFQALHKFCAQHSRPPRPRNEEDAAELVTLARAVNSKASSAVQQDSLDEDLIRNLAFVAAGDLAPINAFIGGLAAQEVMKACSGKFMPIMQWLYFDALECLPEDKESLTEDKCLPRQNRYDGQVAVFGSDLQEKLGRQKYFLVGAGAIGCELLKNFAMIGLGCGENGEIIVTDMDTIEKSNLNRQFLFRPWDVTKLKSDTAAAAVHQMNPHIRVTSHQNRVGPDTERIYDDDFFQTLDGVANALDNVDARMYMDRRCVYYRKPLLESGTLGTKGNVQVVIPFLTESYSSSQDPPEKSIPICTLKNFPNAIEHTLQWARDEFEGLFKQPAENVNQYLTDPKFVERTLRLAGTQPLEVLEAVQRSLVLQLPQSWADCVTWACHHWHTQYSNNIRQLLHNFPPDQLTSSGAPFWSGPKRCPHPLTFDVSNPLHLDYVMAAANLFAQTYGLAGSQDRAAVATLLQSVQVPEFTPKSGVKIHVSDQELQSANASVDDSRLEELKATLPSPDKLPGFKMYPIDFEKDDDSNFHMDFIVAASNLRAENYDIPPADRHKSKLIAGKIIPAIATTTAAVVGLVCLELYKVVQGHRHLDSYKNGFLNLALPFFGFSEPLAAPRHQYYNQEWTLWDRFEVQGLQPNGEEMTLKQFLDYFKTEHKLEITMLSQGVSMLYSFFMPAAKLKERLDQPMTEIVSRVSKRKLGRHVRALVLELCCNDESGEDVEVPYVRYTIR
Description: 2 μl rabbit E1 +12 μl of 1× reaction buffer are mixed together with the test compound followed by addition of 1 μl of ^32P Ub is added for 10 minutes at room temperature followed by resolution by SDS-PAGE under non-reducing conditions to maintain thiol-ester linkages and exposure as above.

[3] = molecular target: T3, GST-MDM2 (Homo sapiens, UniProt Q00987); test: Standard MDM2 in vitro ubiquitination assay (E1+E2+E3), SDS-PAGE gel; format: biochemical; conditions: FIG. 2A, 2F
T3 construct: made in house
Description: a. “Standard MDM2 in vitro Ubiguitination Assay” (E1+E2+E3 Assay)
as §1, with “To carry out the reaction, a pre-made cocktail of Rabbit E1 (Calbiochem #6620700)/UbcH5B/^32P Ub cocktail (1 μl/0.5 μl/1 μl) is added followed by 15 minutes shaking at 30° C.” left out
• 500 mM Tris (pH 7.5) • 2 mM ATP • 5 mM MgCl2 • 1 mM DTT • 10 mM creatine phosphate (Sigma P4635) (45 mg/10 ml). **10× PCK • Sigma C7886, 1000 U, reconstitute in 200 μl 10 mM Tris pH 8.0.

[4] = molecular target: T4, p53 pre-bound to GST-MDM2 (Homo sapiens, UniProt Q00987); test: In vitro p53 ubiquitination assay; format: biochemical; conditions: cellular p53 pre-bound to GST-MDM2, FIG. 2G
T4 construct: made in house; host or cells: GST-MDM2: bacteria; p53: SaOS-p53 inducible cells
Description: d. In Vitro R53 Ubiguitination Assay
p53 protein from SaOS-p53 inducible cell lysate was purified from cells using GST-MDM2 (5 pmol) pre-bound to GS beads. Samples were then incubated with test compounds as above. Subsequently 2 μl rabbit E1, 1 μl UbcH5b, and 10 μg of ubiquitin were added. After reaction for 15 min at 23° C., samples were subject to SDS-PAGE under reducing conditions, transferred to nitrocellulose membranes and immunoblotted with anti-p53 (DO-1) followed by ECL using standard techniques.

[5] = test system: Normal human fibroblast MRC-5; test: Cell based assay for accumulation of MDM2 and p53 (immunoblot); conditions: MRC-5 cells, 50 μM, 8 hours
Description: Methods: Normal human fibroblast MRC-5 were chosen to determine whether the compounds from the high throughput screening can inhibit the E3 activity of Mdm2, i.e. stabilizing MDM2 and p53 in vivo. After being seeded in 12-well tissue culture cluster overnight, the cells were treated with 50 μM of the compounds for 8 hours. They were harvested with trypsin-EDTA, washed with PBS, and lysed with RIPA buffer. Following removal of insoluble pellet by centrifugation for 20 minutes at 10000 rpm, the lysate was separated on 4-20% gradient SDS-polyacrylamide gel and transferred onto nitrocellulose membrane. The membrane was then blotted with anti-p53 antibody (DO-1), anti-MDM2 antibodies (Ab-1 and Ab-2), anti-p27 (Santa Cruz), anti-Nedd4, and anti-p21Waf1 antibody. After extensive washing with PBS containing 0.5% Triton X-100, it was incubated with HRP-labeled donkey anti-mouse antibody and visualized using enhanced chemiluminescence.

T3 sequence (Q00987 whole entry): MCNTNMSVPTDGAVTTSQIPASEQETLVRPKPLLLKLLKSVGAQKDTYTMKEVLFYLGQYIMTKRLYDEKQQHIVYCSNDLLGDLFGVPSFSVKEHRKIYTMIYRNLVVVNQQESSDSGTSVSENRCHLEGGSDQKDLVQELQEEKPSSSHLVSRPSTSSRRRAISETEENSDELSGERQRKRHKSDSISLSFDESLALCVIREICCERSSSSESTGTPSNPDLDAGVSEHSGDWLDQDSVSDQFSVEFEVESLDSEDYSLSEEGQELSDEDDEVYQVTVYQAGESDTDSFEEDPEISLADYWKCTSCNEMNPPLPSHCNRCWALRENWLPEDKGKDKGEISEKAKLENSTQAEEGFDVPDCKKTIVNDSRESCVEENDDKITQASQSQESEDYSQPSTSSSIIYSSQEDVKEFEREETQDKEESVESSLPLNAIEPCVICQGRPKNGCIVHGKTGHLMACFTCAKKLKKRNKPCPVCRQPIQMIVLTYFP
T4 sequence (Q00987 whole entry): as above
T4 sequence (P04637 whole entry partner): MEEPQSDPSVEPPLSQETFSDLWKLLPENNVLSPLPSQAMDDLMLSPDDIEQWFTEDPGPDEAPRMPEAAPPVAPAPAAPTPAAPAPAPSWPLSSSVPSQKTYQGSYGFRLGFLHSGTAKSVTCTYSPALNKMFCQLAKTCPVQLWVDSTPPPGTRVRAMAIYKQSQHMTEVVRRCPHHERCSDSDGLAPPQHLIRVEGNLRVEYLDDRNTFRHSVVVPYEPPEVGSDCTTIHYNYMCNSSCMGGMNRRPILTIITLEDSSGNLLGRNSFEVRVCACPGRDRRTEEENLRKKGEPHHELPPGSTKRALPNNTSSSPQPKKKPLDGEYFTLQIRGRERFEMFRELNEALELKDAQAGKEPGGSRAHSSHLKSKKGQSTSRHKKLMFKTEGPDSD

Row | Structure (SMILES) | selectivity of inhibition of MDM2 versus unrelated E3 ligase Nedd4 [1] | inhibition of thiol-ester linkage of ubiquitin with E1 [2] | inhibition of MDM2 E3 ligase (auto-ubiquitination) [3] | inhibition of p53 ubiquitination by MDM2 [4] | MDM2 level [5] | p53 level [5]
1 | O=c1nc2n(-c3ccc(Cl)cc3)c3ccc([N+](=O)[O-])cc3cc-2c(=O)[nH]1 [Compound 97H10, 10-(4-chloro-phenyl)-7-nitro-10H-pyrimido[4,5-b]quinoline-2,4-dione] | inhibits all E3s | block the activity of the E1 enzyme | – | – | – | –
2 | O=c1nc2n(-c3ccc(Cl)cc3)c3ccc([N+](=O)[O-])cc3cc-2c(=O)[nH]1 [Compound 98D07, 10-(-4-chloro-phenyl)-7-nitro-10H-pyrimido[4,5-b]quinoline-2,4-dione] | – | – | inhibition of MDM2 auto-ubiquitination | significant dose-dependent inhibition of p53 ubiquitination | specifically increase MDM2 and p53 | specifically increase MDM2 and p53
3 | Cc1ccc(-n2c3nc(=O)[nH]c(=O)c-3cc3cc([N+](=O)[O-])ccc32)cc1 [Compound 98E07, 10-(-4-methyl-phenyl)-7-nitro-10H-pyrimido[4,5-b]quinoline-2,4-dione] | – | – | inhibition of MDM2 auto-ubiquitination | – | specifically increase MDM2 and p53 | specifically increase MDM2 and p53
